We go through one compound from PMC5589576, “Targeting the apoptotic Mcl-1-PUMA interface with a dual-acting compound” (Oncotarget, 2017).

Molecules are shown by their SMILES.

One assay concerns SMMC-7721 cells. In words: MTT test on suppressing cancer cells, SMMC-7721. It counts as cell-based. To be noted: Homo sapiens, 24h. How it is done: (§1) (Nunc). To check the interference effects of candidate membranes. […]
(§2) Microplate Spectrophotometer with excitation wavelength (Boster). being 432 nm. The IC50 calculations were performed by Graphpad Prism 5 (Graphpad software, Inc.). Key residues discovery
(§3) Tests of candidate compounds on suppressing In the present study, key residues involved in the […]
(§4) by using site-directed mutagenesis and FPA competition
(§5) Cell lines including A2780, MCF-7 and SMMC- assays in combination. According to the results of pairwise 7721 were cultured to the logarithmic growth phase per-residue free energy decomposition, the residues in 3 ml complete media (RPMI1640 plus 10%FBS), contributing a lot to the binding of PUMA/Comp8 to 4 Mcl-1 were subjected to site-directed mutagenesis. By respectively. After adjusting their concentrations to 5×10 reference to the primers listed in Supplementary Table5, cells/ml with complete media, these cell lines were plated overlapping extension PCR was conducted to realize into 96-well, transparent, flat-bottom plates (150 μl/well), site-directed mutagenesis. After verified by gene each point was prepared in three replicates. The density sequencing, the individually mutated PCR products were of cultured cell lines was evaluated by MTT tests. When cloned into the expressing vector pET-43.1a (+). […]
(In general: Tetrazolium assays rely on reduction of a dye to a coloured formazan, in cell work by metabolically active cells.)

For assay [1], the system named is HUVECs infected with Ad-PUMA. In words: PUMA-induced apoptosis of HUVECs infected with Ad-PUMA (Caspase-Glo 3/7). It counts as cell-based. The note with it: low-dose, less than 12.5 μM, 48h. The procedure:
Tests of candidate compounds on blocking Synthesis of compound 8
PUMA-dependent apoptosis To a suspension of rhodanine (7.57 mmol) in dry Construction and validation of recombinant ethanol (10 mL), 4-Biphentlaldehyde (11.3 mmol), N-(2-Adenovirus By taking pHBAd-MCMV-GFP (Hanbio) as hydroxyethyl) piperazine (11.3 mmol), and glacial acetic vector, the construction and purification of Adenoviruses acid (0.75 mmol) were added and the resulting mixture overexpressing PUMA and PUMA-∆BH3 (PUMA was further stirred under reflux for 5-6 h. The reaction was without the BH3 domain) were performed according to completed and then cooled in an ice bath. The precipitated former reports. […]
various multiplicity of infection (MOI, 6 points, from 0 The crystal structure of Comp8 was solved by X-ray to 160) in 96-well, white, flat-bottom plates (Nunc). […] Shake gently and record the luminescence of each well on TECAN Infinite M1000 S.Y.Z., H.C., J.N.L and J.Y.L. conceived the project.
Microplate Spectrophotometer. The data were analyzed J.Y.L. and Z.T. designed the experiment. J.Y.L., Z.T., by Graphpad Prism and suitable MOI of Ad-PUMA for N.Z., X.Y.L. and C.Y.L. performed the experiments and following cell infection can be determined in this process. prepared the manuscript. […]
added to make the final compound concentrations range 2. […] The results were detected by flexible docking. […]

The subject of a further assay is MCF-7 cells. In words: MTT test on suppressing cancer cells, MCF-7. The note with it: Homo sapiens, MCF7, 24h. It counts as cell-based. How it is done: as §1, §2, §3, §4, §5
Another assay concerns A2780 cells. In words: MTT test on suppressing cancer cells, A2780. It counts as cell-based. The note with it: Homo sapiens, 24h. How it is done: as §1, §2, §3, §4, §5
In another assay the target is T1, Mcl-1WT (Homo sapiens, UniProt Q07820).
T1 construct: implied by Ni2+-NTA purification from pET-43.1a(+)); made in house; host or cells: E. coli BL21
The assay is described as follows: FPA competition assay, wildtype Mcl-1. It counts as binding. The note with it: FITC-Mcl-BH3 probe.

T1 sequence (Q07820 172-327): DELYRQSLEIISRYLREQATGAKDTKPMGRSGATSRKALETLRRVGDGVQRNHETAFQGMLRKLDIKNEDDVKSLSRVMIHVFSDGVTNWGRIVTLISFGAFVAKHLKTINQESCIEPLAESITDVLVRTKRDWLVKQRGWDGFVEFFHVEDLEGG

Turning to `O=C1N=C(N2CCN(CCO)CC2)S/C1=C\c1ccc(-c2ccccc2)cc1` [Comp8], the figures for the 50% inhibitory concentration (IC50) with SMMC-7721 cells, in the assay on MCF-7 cells and in the assay on A2780 cells were 44.2 ± 2.22 µM, 44.2 ± 2.3 µM and 47.6 ± 2.99 µM, respectively. In addition, the “effect on PUMA-induced apoptosis of HUVECs” value in assay [1] is on record as “inhibitory effect”. At Mcl-1WT, this compound came in with a Ki of 0.3 ± 0.04 µM.

In general, IC50 refers to the concentration needed to halve the response being measured. In general, Ki refers to a measure of affinity in units of concentration, obtained from inhibition or displacement. A low value points to tighter binding.
